Results as given in BindingDB's records for doi:10.1016/j.bioorg.2015.06.004 (University of Karachi, 2015).

Target: Urease [D459Y,K653P] (Canavalia ensiformis, UniProt P07374, D459Y/K653P)
Assay: Urease Inhibition Assay
Conditions: pH 8.2
Protocol: The mixture of this enzyme inhibition assay was composed of 10 µL of enzyme (5 U/mL) and 10 µL of each test compound in the series (3a-3s) in 40 µL buffer (100 mM urea, 0.01 M K2HPO4, 1 mM EDTA and 0.01 M […], pH 8.2). The resulting mixture in for each test compound was incubated for 30 min at 37 °C in 96-well plates. Subsequently, the phenol reagents (40 µL) (1%, w/v phenol and 0.005%, w/v sodium nitroprusside) and alkali reagent (40 µL) (0.5%, w/v NaOH and 0.1% active chloride NaOCl) were dropped down into each well. The absorbance of the colored resultant mixtures was measured after 30 min at 625 nm.

Sequence of Urease [D459Y,K653P] (P07374 whole entry D459Y/K653P): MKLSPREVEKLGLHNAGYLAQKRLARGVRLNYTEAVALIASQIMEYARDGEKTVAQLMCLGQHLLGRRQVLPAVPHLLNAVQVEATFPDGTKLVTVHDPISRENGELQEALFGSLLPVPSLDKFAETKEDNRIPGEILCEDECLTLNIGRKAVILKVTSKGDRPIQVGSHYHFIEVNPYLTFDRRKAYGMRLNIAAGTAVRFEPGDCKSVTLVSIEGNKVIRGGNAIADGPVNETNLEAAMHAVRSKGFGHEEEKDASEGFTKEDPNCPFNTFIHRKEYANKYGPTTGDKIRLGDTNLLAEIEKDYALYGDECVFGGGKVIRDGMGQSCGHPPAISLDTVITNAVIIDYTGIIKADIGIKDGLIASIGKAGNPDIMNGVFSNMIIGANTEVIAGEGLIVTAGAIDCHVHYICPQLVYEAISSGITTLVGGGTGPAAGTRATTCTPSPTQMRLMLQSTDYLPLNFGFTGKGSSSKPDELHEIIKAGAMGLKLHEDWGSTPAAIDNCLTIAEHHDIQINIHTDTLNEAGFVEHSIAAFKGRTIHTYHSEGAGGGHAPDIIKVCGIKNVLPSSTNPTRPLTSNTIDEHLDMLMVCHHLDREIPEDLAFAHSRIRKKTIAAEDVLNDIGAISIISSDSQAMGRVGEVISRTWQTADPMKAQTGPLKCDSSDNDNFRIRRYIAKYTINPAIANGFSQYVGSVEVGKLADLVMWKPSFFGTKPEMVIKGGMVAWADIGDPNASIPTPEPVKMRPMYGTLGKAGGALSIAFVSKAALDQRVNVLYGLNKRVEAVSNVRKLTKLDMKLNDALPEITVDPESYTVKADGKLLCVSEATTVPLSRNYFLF

First: CC(=NNC(=S)Nc1cccc(Br)c1)c1cc2ccccc2o1 [2-(1-(Benzofuran-2-yl)ethylidene)-N-(3-bromophenyl)hydrazinecarbothioamide (3i)]
Second: CC(=NNC(=S)Nc1cccc(C)c1)c1cc2ccccc2o1 [1-[1-(2-benzofuranyl)ethylideneamino]-3-(3-methylphenyl)thiourea]
The IC50 of the first is 39-fold higher: 10900 nM for the first, 283 nM for the second.

Going from `CC(=NNC(=S)Nc1ccccc1Br)c1cc2ccccc2o1` [2-(1-(Benzofuran-2-yl)ethylidene)-N-(2-bromophenyl)hydrazinecarbothioamide (3j)] to `CC(=NNC(=S)Nc1ccccc1C)c1cc2ccccc2o1` [2-(1-(Benzofuran-2-yl)ethylidene)-N-(2-methylphenyl)hydrazinecarbothioamide (3p)], the IC50 falls from 564 nM to 314 nM (1.8-fold).

`CC(=NNC(=S)Nc1ccc(F)cc1F)c1cc2ccccc2o1` [2-(1-(Benzofuran-2-yl)ethylidene)-N-(2,4-difluorophenyl)hydrazinecarbothioamide (3h)] and `CC(=NNC(=S)Nc1ccccc1F)c1cc2ccccc2o1` [2-(1-(Benzofuran-2-yl)ethylidene)-N-(2-fluorophenyl)hydrazinecarbothioamide (3g)] are within 1.5-fold of each other in IC50: 387 nM for the first, 321 nM for the second.

`CC(=NNC(=S)Nc1cccc(Cl)c1)c1cc2ccccc2o1` [2-(1-(Benzofuran-2-yl)ethylidene)-N-(3-chlorophenyl)hydrazinecarbothioamide (3b)] and `CC(=NNC(=S)Nc1cccc(F)c1)c1cc2ccccc2o1` [2-(1-(Benzofuran-2-yl)ethylidene)-N-(3-fluorophenyl)hydrazinecarbothioamide (3f)] are within 1.5-fold of each other in IC50: 1130 nM for the first, 1150 nM for the second.

First: CC(=NNC(=S)Nc1cc(Cl)ccc1Cl)c1cc2ccccc2o1 [2-(1-(Benzofuran-2-yl)ethylidene)-N-(2,5-dichlorophenyl)-hydrazinecarbothioamide (3d)]
Second: CC(=NNC(=S)Nc1ccc(Cl)cc1Cl)c1cc2ccccc2o1 [2-(1-(Benzofuran-2-yl)ethylidene)-N-(2,4-dichlorophenyl)-hydrazinecarbothioamide (3c)]
The IC50 of the first is 3.4-fold higher: 2010 nM for the first, 592 nM for the second.

Compared with `CC(=NNC(=S)Nc1ccc([N+](=O)[O-])cc1)c1cc2ccccc2o1` [2-(1-(Benzofuran-2-yl)ethylidene)-N-(4-nitrophenyl)hydrazinecarbothioamide (3l)], `CC(=NNC(=S)Nc1cccc([N+](=O)[O-])c1)c1cc2ccccc2o1` [2-(1-(Benzofuran-2-yl)ethylidene)-N-(3-nitrophenyl)hydrazinecarbothioamide (3k)] is 2.4-fold lower in IC50: 181 nM for the first, 77 nM for the second.

Going from `COc1cccc(NC(=S)NN=C(C)c2cc3ccccc3o2)c1` [2-(1-(Benzofuran-2-yl)ethylidene)-N-(3-methoxyphenyl)hydrazinecarbothioamide (3n)] to `COc1ccc(NC(=S)NN=C(C)c2cc3ccccc3o2)cc1` [2-(1-(Benzofuran-2-yl)ethylidene)-N-(4-methoxyphenyl)hydrazinecarbothioamide (3m)], the IC50 rises from 102 nM to 2610 nM (26-fold). The first is the more potent here.

Compared with `CC(=NNC(=S)Nc1ccccc1)c1cc2ccccc2o1` [2-(1-(Benzofuran-2-yl)ethylidene)-N-phenylhydrazinecarbothioamide (3a)], `CC(=NNC(=S)Nc1ccc(F)cc1)c1cc2ccccc2o1` [2-(1-(Benzofuran-2-yl)ethylidene)-N-(4-fluorophenyl)hydrazinecarbothioamide (3e)] is 2-fold higher in IC50: 89 nM for the first, 177 nM for the second.

Compared with `CC(=NNC(=S)Nc1ccc(C)cc1)c1cc2ccccc2o1` [SMR000377934], `COc1ccccc1NC(=S)NN=C(C)c1cc2ccccc2o1` [2-(1-(Benzofuran-2-yl)ethylidene)-N-(2-methoxyphenyl)hydrazinecarbothioamide (3o)] is 6.9-fold higher in IC50: 3470 nM for the first, 24000 nM for the second. The first is the more potent here.

In the case of `C=CCNC(=S)NN=C(C)c1cc2ccccc2o1` [N-Allyl-2-(1-(benzofuran-2-yl)ethylidene)hydrazinecarbothioamide (3s)], the IC50 is reported as 694 nM.
